Literature values as cited in article PMC13179673 (European journal of pharmaceutical sciences : official …, 2025).

Tests used:
OHT rabbit eyes = test system: OHT rabbit eyes; parameters: method as in Behar-Cohen et al., 1996; settings: eyedrop, ref Behar-Cohen et al., 1996
[1] = biological pH at 37°C

In the case of `[NH-]c1c[n+](N2CCOCC2)no1` [SIN-1, linsidomine], the “duration of IOP-lowering effect” value (OHT rabbit eyes) is given as at most 3 h and the half-life [1] is given as under 1 h.
